According to US9301951B2 (Ardelyx, Inc., priority 2010, dated 2016):
Marks after values point to notes of the source that are not given here.

Tests used:
[1] = system: 5/6 nephrectomy (5/6Nx) rat model of CKD; assay: In vivo evaluation in CKD rats (5/6 nephrectomy, 0.9% P diet, calcitriol); conditions: drug in chow
Procedure: To assess the ability of selected example compounds to impact the progression of chronic kidney disease (CKD), 5/6 nephrectomy (5/6Nx) rat model of CKD was used. […] 5/6 Nx rats were obtained from Charles River Labs (CRL, Hollister, Calif.). Upon arrival, the surgeries and extent of kidney damage in the animals were assessed by measuring serum creatinine, P, Ca, and BUN. Based on this analysis, rats with inconsistent kidney function were removed from the study and the remainder of the cohort was divided in to evenly stratified test groups. The remaining animals were then placed on the same synthetic diet used in the drug-in-chow studies (Example 350), except the P levels were adjusted to 0.9% P. Drugs are blended into this chow to achieve the required dosing rate. At this time, rats were also started on an activated Vitamin D regimen in which they were injected intraperitoneally with calcitriol at 80 ng/kg three times a week. Once a week, serum was collected via retro orbital bleeding for analysis of serum P and creatinine utilizing an ACE ALERA blood chemistry analyzer. […] Unless otherwise indicated, the data shown is from the serum collected at 2 weeks after initiation of the treatment regimen. In addition, for study #3, during the third week of the study, the animals were placed in metabolic cages for two days, and urine collected for the final 24 hours.

[2] = molecular target: T1, human NaP2b (SLC34A2) (Homo sapiens, UniProt O95436); assay: Inhibition of NaP2b-mediated Pi (33P) uptake in transfected HEK293 cells, human NaP2b; assay type: cell-based; conditions: HEK293 cells transfected with human NaP2b, 100 uM phosphate, 0.1 nM to 30 uM, read-out: pIC50 range for human NaP2b (converted)
T1 construct: host or cells: HEK293
T1 sequence (O95436 1-690): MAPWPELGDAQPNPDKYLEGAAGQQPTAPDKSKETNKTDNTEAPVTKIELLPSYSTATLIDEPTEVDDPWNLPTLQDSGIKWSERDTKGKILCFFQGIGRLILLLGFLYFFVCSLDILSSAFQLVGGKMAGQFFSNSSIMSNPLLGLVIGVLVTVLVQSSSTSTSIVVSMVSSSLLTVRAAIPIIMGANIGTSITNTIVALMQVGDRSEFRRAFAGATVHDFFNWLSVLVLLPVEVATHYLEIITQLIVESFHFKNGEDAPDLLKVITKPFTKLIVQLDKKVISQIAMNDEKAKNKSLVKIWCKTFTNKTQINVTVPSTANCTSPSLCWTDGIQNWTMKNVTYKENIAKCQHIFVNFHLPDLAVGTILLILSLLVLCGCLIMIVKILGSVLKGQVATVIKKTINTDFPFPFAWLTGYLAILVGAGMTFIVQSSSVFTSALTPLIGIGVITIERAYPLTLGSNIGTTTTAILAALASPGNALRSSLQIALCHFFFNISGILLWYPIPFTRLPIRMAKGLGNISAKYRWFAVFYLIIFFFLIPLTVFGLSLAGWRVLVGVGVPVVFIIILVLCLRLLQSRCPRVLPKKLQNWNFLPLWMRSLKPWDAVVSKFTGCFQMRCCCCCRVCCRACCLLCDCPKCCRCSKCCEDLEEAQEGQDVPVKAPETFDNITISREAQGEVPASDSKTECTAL
Procedure: HEK293 cells were obtained from the American Type Culture collection and propagated per their instructions. Expression clones for rat and human NaP2b (SLC34A2) were obtained from Open Biosystems (Catalog numbers MRN1768-9510282, and MHS1010-99823026, respectively). The sequence of the human protein was mutated to insert a threonine after residue 37, and to introduce a N39D mutation.
The rate of phosphate (Pi) uptake into HEK293 cells was measured using a modification of the method described by Mohrmann et al. (Mohrmann, I., Mohrmann, M., Biber, J., and Murer, H. (1986) Am. J. Phys. 250(3 Pt 1):G323-30.) Transfected HEK293 cells were treated with a pharmacological agent to minimize endogenous PiT-mediated phosphate transport activity, such that the only remaining sodium-dependent phosphate transport activity is that which was bestowed by introduction of the NaP2b genes.
Cells were seeded into 96-well plates at 25,000 cells/well and cultured overnight. Lipofectamine 2000 (Invitrogen) was used to introduce the NaP2b cDNA, and the cells were allowed to approach confluence during a second overnight incubation. […] Cells were then overlayed with either choline uptake buffer or sodium uptake buffer (14 mM Tris, 137 mM sodium chloride, 5.4 mM KCl, 2.8 mM CaCl2, 1.2 mM MgSO4, 100 uM KH2PO4, PiT-silencing agent, 1 mg/mL Bovine Serum Albumin, pH 7.4) containing 6-9 uCi/mL ^33P orthophosphoric acid (Perkin Elmer) and test compound. Each compound was tested at twelve concentrations ranging from 0.1 nM to 30 uM. Assays were run in duplicate.
After incubation for 3-30 minutes at room temperature, assay mixtures were removed, and the cells were washed twice with ice cold stop solution (137 mM sodium chloride, 14 mM Tris, pH 7.4). Cells were lysed by addition of 20 μL 0.1% Tween 80 followed by 100 μL scintillation fluid, and counted using a TopCount (Perkin Elmer).
pIC50 (the negative log of the […]) values of the test compounds were calculated using GraphPad Prism.

[3] = molecular target: T2, rat NaP2b (SLC34A2) (Rattus norvegicus, UniProt Q9JJ09); assay: Inhibition of NaP2b-mediated Pi (33P) uptake in transfected HEK293 cells, rat NaP2b; assay type: cell-based; conditions: HEK293 cells transfected with rat NaP2b, 100 uM phosphate, 0.1 nM to 30 uM, read-out: pIC50 range for rat Nap2b (converted)
T2 construct: host or cells: HEK293
T2 sequence (Q9JJ09 1-695): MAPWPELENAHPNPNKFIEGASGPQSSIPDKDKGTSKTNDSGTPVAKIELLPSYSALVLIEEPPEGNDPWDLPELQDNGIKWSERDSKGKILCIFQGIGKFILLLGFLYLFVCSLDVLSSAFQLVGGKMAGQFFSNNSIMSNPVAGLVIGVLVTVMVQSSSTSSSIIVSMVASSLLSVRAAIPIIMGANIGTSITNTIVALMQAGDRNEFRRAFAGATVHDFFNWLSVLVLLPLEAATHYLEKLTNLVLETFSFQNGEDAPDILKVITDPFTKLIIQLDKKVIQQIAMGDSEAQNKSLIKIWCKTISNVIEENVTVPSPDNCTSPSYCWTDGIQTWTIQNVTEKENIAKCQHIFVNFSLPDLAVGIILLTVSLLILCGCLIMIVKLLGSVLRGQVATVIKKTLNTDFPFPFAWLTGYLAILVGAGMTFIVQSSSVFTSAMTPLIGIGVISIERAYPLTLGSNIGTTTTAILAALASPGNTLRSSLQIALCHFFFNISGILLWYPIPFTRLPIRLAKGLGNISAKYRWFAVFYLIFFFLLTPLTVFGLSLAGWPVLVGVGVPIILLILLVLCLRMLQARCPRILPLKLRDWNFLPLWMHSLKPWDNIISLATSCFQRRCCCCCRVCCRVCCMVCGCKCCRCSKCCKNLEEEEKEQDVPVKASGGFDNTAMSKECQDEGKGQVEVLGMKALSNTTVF
Summary of the method: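 HEK293 cells transiently transfected with rat NaP2b; 33P-phosphate uptake measured in sodium or choline buffer (100 uM KH2PO4, PiT-silencing agent, pH 7.4) with compound at twelve concentrations, 0.1 nM–30 uM, in duplicate. Lysed cells counted by scintillation; pIC50 derived from concentration-response.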

[4] = Stability of compounds in simulated gastric fluid (SGF); assay type: in vitro ADME; conditions: simulated gastric fluid (USP, 3 mg/mL pepsin), 1-20 μM, incubation time 6 hr, relative to t=0
Procedure: (§1) Test compounds were incubated at 1-20 μM in simulated gastric fluid (SGF; standard USP solution with 3 mg/mL pepsin) or simulated intestinal fluid (SIF; standard USP solution with 3 mg/mL pancreatin) for 3 hr or 6 hr. HPLC-UV or HPLC-MS were used to determine test compound levels using peak area %. Results (Table 14) were reported as the percentage of test compound remaining after incubation in a given condition relative to test compound present at t=0 in the same condition.

[5] = Stability of compounds in simulated intestinal fluid (SIF); assay type: in vitro ADME; conditions: simulated intestinal fluid (USP, 3 mg/mL pancreatin), 1-20 μM, incubation time 6 hr, relative to t=0
Procedure: as §1

[6] = system: Sprague-Dawley rats; assay: In vivo bolus phosphorus challenge (serum phosphate elevation); conditions: rat; oral; drug dose 30; phosphate bolus 15 min after compound; serum 30 min post bolus
Procedure: By pretreating animals with a low phosphorus diet followed by the subsequent dosing of a phosphorus bolus, serum phosphorus levels were monitored after 30 minutes as a surrogate for intestinal phosphorus absorption. […] The in vivo bolus phosphorus challenge model used here mimics this model in rats.
Male, 7-week-old Sprague-Dawley rats (Charles-River laboratories international, Hollister, Calif.) were allowed to acclimatize for a minimum of 3 days before switching to a synthetic low-phosphorus diet (TD.85010, Harlan Teklad, Madison, Wis.) which contains 0.1% phosphorus and 0.6% calcium. At day 5, testing compounds or vehicle alone (as indicated) were orally administered at the indicated dose in a volume of 5 ml/kg, followed by a bolus gavage of monobasic sodium phosphate (1 mmol in 1 ml) 15 min after compound dosing. Serum was collected via retroorbital bleeding 30 min post phosphate bolus and phosphate levels were determined utilizing an ACE ALERA blood chemistry analyzer (Alfa Wassermann Diagnostic Technologies, West Caldwell, N.J.).
The extent of inhibition by test compounds on the elevation of serum phosphate levels in response to the bolus of phosphorus is shown in Table 12 (data are expressed as % Inhibition, with 6-10 animals per data point). The differences between groups were evaluated by one-way analysis of variance with Dunnett's post hoc tests.

## CCN(CC)c1ccc(NC(=O)c2cccc(CCCOCCOCCOCCOCCOCCOCCOCCOCCOC)c2)c(-c2cc(C(=O)N[C@H]3CCCc4ccccc43)ccn2)c1 [Example 261, (S)-2-(2-(3-(2,5,8,11,14,17,20,23,26-nonaoxanonacosan-29-yl)benzamido)-5-(diethylamino)phenyl)-N-(1,2,3,4-tetrahydronaphthalen-1-yl)isonicotinamide]
[1]; study 1, 2 weeks
  Ser CRE: 1.0 mg/dL
  Ser P: 9.7 mg/dL
[1]; study 1, 2 weeks, serum
  FGF23, pg/mL: >15,000 pg/mL

## CCN(CC)c1ccc(NC(=O)c2cccc(COCCOCCOCCOCCOC(=O)N(CCO)CCO)c2)c(-c2cc(C(=O)NCc3cccc(C(F)(F)F)c3)ccn2)c1 [Example 176, 1-(3-(4-(diethylamino)-2-(4-(3-(trifluoromethyl)benzylcarbamoyl)pyridin-2-yl)phenylcarbamoyl)phenyl)-2,5,8,11-tetraoxamidecan-13-yl bis(2-hydroxyethyl)carbamate]
[2]
  IC50: 1 to 7.94 µM
[3]
  IC50: 1 to 7.94 µM

## CCN(CC)c1ccc(NC(=O)c2cccc(COCCOCCOCCOCCOCCOCCOC(=O)NCCOCCOCCOCCOCCOCCOCCOC)c2)c(-c2cc(C(=O)NCc3cccc(C(F)(F)F)c3)ccn2)c1 [Example 174, 1-(3-(4-(diethylamino)-2-(4-(3-(trifluoromethyl)benzylcarbamoyl)pyridin-2-yl)phenylcarbamoyl)phenyl)-2,5,8,11,14,17-hexaoxanonadecan-19-yl 2,5,8,11,14,17,20-heptaoxadocosan-22-ylcarbamate]
[4]
  % remaining, SGF: >80%
[5]
  % remaining, SIF: >80%
[2]
  IC50: < 1 µM
[3]
  IC50: 1 to 7.94 µM

## CCN(CC)c1ccc(NC(=O)c2cccc(C(=O)N(C)CCN3CCN(C(=O)N(C)CCOCCOCCOCCC(=O)N(C)C[C@H](O)[C@@H](O)[C@H](O)[C@H](O)CO)CC3)c2)c(-c2cc(C(=O)N[C@H]3CCCc4ccccc43)ccn2)c1 [Example 232, 3-N-[4-(diethylamino)-2-(4-{[(1S)-1,2,3,4-tetrahydronaphthalen-1-yl]carbamoyl}pyridin-2-yl)phenyl]-1-N-methyl-1-N-(2-{4-[methyl(2-{2-[2-(2-{methyl[(2S,3R,4R,5R)-2,3,4,5,6-pentahydroxyhexyl]carbamoyl}ethoxy)ethoxy]ethoxy}ethyl)carbamoyl]piperazin-1-yl}ethyl)benzene-1,3-dicarboxamide]
[2]
  IC50: 10 to 31.6 µM
[3]
  IC50: 10 to 31.6 µM

## O=C(O)CCSCc1cccc(C(=O)Nc2ccc(Cl)cc2-c2cc(C(=O)NCc3cccc(C(F)(F)F)c3)ccn2)c1 [Example 21, 3-((3-((4-Chloro-2-(4-((3-(trifluoromethyl)benzyl)carbamoyl)pyridin-2-yl)phenyl)carbamoyl)benzyl)thio)propanoic acid]
[6]
  % Inhibition of Serum P elevation: 10-20%
[3]
  IC50: 1 to 7.94 µM

## CCN(CC)c1ccc(NC(=O)c2cccc(CSCCOCCOCCOCCOCCOCCOCCOCCOCCC(=O)O)c2)c(-c2cc(C(=O)NCc3cccc(C(F)(F)F)c3)ccn2)c1 [Example 166, 1-(3-(4-(diethylamino)-2-(4-(3-(trifluoromethyl)benzylcarbamoyl)pyridin-2-yl)phenylcarbamoyl)phenyl)-5,8,11,14,17,20,23,26-octaoxa-2-thianonacosan-29-oic acid]
[1]; study 2, 2 weeks
  Ser CRE: 1.2 mg/dL
  Ser P: 11 mg/dL
[1]; study 2, 2 weeks, serum
  FGF23: 100000 pg/mL
[1]; study 3, 3 weeks
  Ser CRE, mg/dL: 1.0^§ mg/dL
  Ser P, mg/dL: 10^§ mg/dL
[1]; study 3, 4 weeks
  Avg % weight gain: 35^§§ %
[1]; study 3, 4 weeks, serum
  FGF23, pg/mL: 1.2 × 10^5§§ pg/mL

## O=C(O)CCSCc1cccc(C(=O)Nc2ccc(N3CCOCC3)cc2-c2cc(C(=O)NCc3cccc(C(F)(F)F)c3)ccn2)c1 [Example 14, 3-((3-((4-Morpholino-2-(4-((3-(trifluoromethyl)benzyl)carbamoyl)pyridin-2-yl)phenyl)carbamoyl)benzyl)thio)propanoic acid]
[6]
  % Inhibition of Serum P elevation: 10-20%
[3]
  IC50: 10 to 31.6 µM
